Data published in publication PMC10545747, “Development of cyclopeptide inhibitors of cGAS targeting protein-DNA interaction and phase separation” (Nature Communications, 2023).
Values joined by “and” are separate entries in the source; they are usually repeats but may differ in a detail not shown here. Identical values can stand only once. Like-named read-outs stand apart in the source and are kept apart here. Square brackets hold non-standard residues; d marks the D form. Peptide text beside a SMILES is read from it. Hyp = O=C(O)[C@@H]1C[C@@H](O)CN1

Molecular target: T1, recombinant human cGAS enzyme (hcGAS-ΔN, residues 147–522) (Homo sapiens, UniProt Q8N884)
T1 construct: N-terminally truncated human cGAS (hcGAS-ΔN, residues 147–522); 6xHis-SUMO (N, cleaved yes); made in house; host or cells: Escherichia coli BL21 (DE3)
T1 sequence (Q8N884 147-522, stated change not applied): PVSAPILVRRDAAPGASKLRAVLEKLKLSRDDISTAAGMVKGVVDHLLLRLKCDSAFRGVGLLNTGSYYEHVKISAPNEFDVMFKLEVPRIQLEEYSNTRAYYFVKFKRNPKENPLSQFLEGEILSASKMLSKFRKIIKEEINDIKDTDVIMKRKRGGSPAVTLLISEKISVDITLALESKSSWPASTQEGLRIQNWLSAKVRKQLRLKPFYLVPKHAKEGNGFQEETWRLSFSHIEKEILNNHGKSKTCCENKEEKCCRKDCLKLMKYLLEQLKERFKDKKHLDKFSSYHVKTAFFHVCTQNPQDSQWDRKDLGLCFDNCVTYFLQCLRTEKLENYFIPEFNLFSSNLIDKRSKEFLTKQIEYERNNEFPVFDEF
Experiment: RNA-based fluorescent biosensor assay of cGAS activity (2',3'-cGAMP formation), in vitro screening
Format: biochemical
Settings: for Remaining activity (%), Fig. 1a source data / remaining activity at 20 µM: 20 μM, replicate values; for remaining activity at 20 µM: read-out: Remaining activity (%), Fig. 1a source data
From the text: To screen direct cGAS inhibitors targeting protein-DNA interface from our developed focused library of macrocyclic peptides, we applied an RNA-based fluorescent biosensor for 2’,3’-cGAMP to detect cGAS activity in vitro (Supplementary Fig. 1a)[49]. The formation of 2’,3’-cGAMP from ATP and GTP was catalyzed by recombinant human cGAS enzyme (hcGAS-ΔN, residues 147–522, Supplementary Fig. 1b) in the presence of ISD (interferon stimulatory DNA, a 45-bp dsDNA), which was readily quantified by the RNA-based fluorescent biosensor and was further confirmed by ion exchange chromatography (Supplementary Fig. 1c). […] Subsequently, a total of 90 macrocyclic peptides were screened at a concentration of 20 μM (Fig. 1a and Supplementary Fig. 1e), and 4 hits (XQ2, XQ8, XQ19, and XQ46) were obtained for further testing at a cut-off of 40% inhibition (Supplementary Table 1). To evaluate the inhibitory effect of the hits against cGAS in cells, we employed real-time quantitative PCR (qPCR) to examine mRNA levels of IFNΒ1 in THP1 cells. The reported cGAS inhibitor RU.521 was used as the positive control, and the non-active peptide XQ28 in the screening assay was used as the negative control. […] The inhibition of cGAS by these hits was further confirmed in the reporter cell line THP1-Lucia ISG (Invivogen) that expresses secreted luciferase induced by an IRF3-inducible ISG54 promoter (Fig. 1c). The discrepancy between the inhibitory effect of the hits in protein and cellular assays may be attributed to their different cellular permeability.
The high-throughput screening (HTS) experiments of cGAS activity are based on the method previously described. To initiate the enzyme reaction, ISD was added to the reaction solution (40 mM Tris-HCl, pH 7.5, 100 mM NaCl, 10 mM MgCl2) containing hcGAS-ΔN, ATP (Sangon Biotech, Cat# A600311) and GTP (Sangon Biotech, Cat# A620332) in a total volume of 20 ul with the final concentration of 0.5 μM, 1.5 μM, 1 mM, 1 mM, respectively, and incubated for 2 h at 37 °C. For HTS experiments, compounds were added to the same reaction conditions as described above with the final concentration of 20 μM. Z’ factors were calculated from three replicates in the 384-well plate.

[1] = peptides screened at 20 μM, Supplementary Table 1 / Fig. S5b, read-out: Inhibition %
[2] = peptides screened at 20 μM, Supplementary Table 1 / Fig. S5b

inhibition at 20 µM [1] [%] | Inhibition % [2] [%] | Molecule | other results
 | 0 | Cyclo (LfPVDAfPVR) [XQ81] | 
 | 0 | Cyclo (Lw(K(Dde))VDLf(K(Dde))VR) [XQ71] | 
 | 0 | Cyclo (AaRTDLfPVR) [XQ89] | 
 | 0 | Cyclo (LfPTDLf(K(Alloc))VR) [XQ72] | 
 | 0 | Cyclo (LfRADAfPTR) [XQ80] | 
 | 0 | Cyclo (LfRADAfPVR) [XQ83] | 
 | 0 | Cyclo (LfPTDAfPVR) [XQ84] | 
0 |  | CC(C)C[C@@H]1NC(=O)[C@H](CCCNC(=N)N)NC(=O)[C@H](C(C)C)NC(=O)[C@@H]2CCCN2C(=O)[C@@H](Cc2ccccc2)NC(=O)[C@H](CC(C)C)NC(=O)[C@H](CC(=O)O)NC(=O)[C@H](C(C)C)NC(=O)[C@H](CCCNC(=N)N)NC(=O)[C@@H](Cc2ccccc2)NC1=O [XQ76, Cyclo (LfRVDLfPVR)] (cyclo(DL[dF]PVRL[dF]RV)) | 
 | 5 | Cyclo (LfPTDLfPVR) [XQ90] | 
 | 0 | Cyclo (LwPVDLf(K(Dde))VR) [XQ74] | 

The next lines start with the molecule.

Molecule | inhibition at 20 µM [1] [%] | Inhibition % [2] [%] | other results
CC(C)C[C@@H]1NC(=O)[C@H](CCCNC(=N)N)NC(=O)[C@H]([C@@H](C)O)NC(=O)[C@@H]2CCCN2C(=O)[C@@H](Cc2ccccc2)NC(=O)[C@H](CC(C)C)NC(=O)[C@H](CCCNC(=N)N)NC(=O)[C@H](C)NC(=O)[C@@H]2CCCN2C(=O)[C@@H](Cc2ccccc2)NC1=O [XQ36, Cyclo (LfPARLfPTR)] (cyclo(ARL[dF]PTRL[dF]P)) | 11 |  | Remaining activity (%), Fig. 1a source data: 88.7067% and 87.9053%; remaining activity at 20 µM: 89.5%
CCN(CC)CCCC(C)Nc1c2ccc(Cl)cc2nc2ccc(OC)cc12 (centres unmarked) [quinacrine, reference compound] |  |  | cGAS activity in the biosensor assay: inhibited the activity of cGAS in a dose-dependent manner
CC(C)C[C@@H]1NC(=O)[C@H](C)NC(=O)[C@H](C(C)C)NC(=O)[C@@H]2CCCN2C(=O)[C@@H](CCCNC(=N)N)NC(=O)[C@H](CC(C)C)NC(=O)[C@H](CCCNC(=N)N)NC(=O)[C@H](C(C)C)NC(=O)[C@@H]2CCCN2C(=O)[C@@H](Cc2ccccc2)NC1=O [XQ55, Cyclo (LrPVALfPVR)] (cyclo(AL[dF]PVRL[dR]PV)) | 0 |  | 
CC(C)C[C@@H]1NC(=O)[C@H](C)NC(=O)[C@H](C(C)C)NC(=O)[C@@H]2CCCN2C(=O)[C@@H](Cc2ccccc2)NC(=O)[C@H](CC(C)C)NC(=O)[C@H](CCCNC(=N)N)NC(=O)[C@H](C(C)C)NC(=O)[C@H](CCCNC(=N)N)NC(=O)[C@@H](Cc2ccccc2)NC1=O [XQ45, Cyclo (LfRVRLfPVA)] (cyclo(AL[dF]RVRL[dF]PV)) | 0 |  | Remaining activity (%), Fig. 1a source data: 110.841% and 109.702%; remaining activity at 20 µM: 115%
Cyclo (LwP(T(NMe))DLf(K(Dde))VR) [XQ61] |  | 16 | 
CC(C)C[C@@H]1NC(=O)[C@H](CCCNC(=N)N)NC(=O)[C@H](C(C)C)NC(=O)[C@H](C)NC(=O)[C@@H](Cc2ccccc2)NC(=O)[C@H](C)NC(=O)[C@H](CC(=O)O)NC(=O)[C@H](C(C)C)NC(=O)[C@@H]2CCCN2C(=O)[C@@H](Cc2ccccc2)NC1=O [XQ57, Cyclo (LfPVDAfAVR)] (cyclo(AVRL[dF]PVDA[dF])) | 0 |  | 
Cyclo (LwPTDLf(K(Dde))(V(NMe))R) [XQ62] |  | 0 | 
CC(C)C[C@@H]1NC(=O)[C@H](CC(=O)O)NC(=O)[C@H](C(C)C)NC(=O)[C@@H]2CCCN2C(=O)[C@@H](Cc2ccccc2)NC(=O)[C@H](CC(C)C)NC(=O)[C@H](CCCNC(=N)N)NC(=O)[C@H](C(C)C)NC(=O)[C@@H]2CCCN2C(=O)[C@@H](Cc2ccccc2)NC1=O [XQ60, Cyclo (LfPVDLfPVR)] (cyclo(DL[dF]PVRL[dF]PV)) | 0 |  | 
CC(C)C[C@@H]1NC(=O)[C@H](CC(=O)O)NC(=O)[C@H](CCCNC(=N)N)NC(=O)[C@H](C(C)C)NC(=O)[C@@H]2CCCN2C(=O)[C@@H](Cc2ccccc2)NC(=O)[C@H](CC(C)C)NC(=O)[C@H]([C@@H](C)O)NC(=O)[C@@H]2CCCN2C(=O)[C@@H](Cc2ccccc2)NC1=O [XQ64, Cyclo (DLfPTLfPVR)] (cyclo(DL[dF]PTL[dF]PVR)) | 0 |  | 
CC(C)C[C@@H]1NC(=O)[C@H](CCCNC(=N)N)NC(=O)[C@H]([C@@H](C)O)NC(=O)[C@@H]2C[C@@H](O)CN2C(=O)[C@@H](Cc2ccccc2)NC(=O)[C@H](CC(C)C)NC(=O)[C@H](CCCNC(=N)N)NC(=O)[C@H]([C@@H](C)O)NC(=O)[C@@H]2CCCN2C(=O)[C@@H](Cc2ccccc2)NC1=O [XQ33, Cyclo (Lf(Hyp)TRLfPTR)] (cyclo([Hyp]TRL[dF]PTRL[dF])) | 2 |  | Remaining activity (%), Fig. 1a source data: 98.2995% and 98.5649%; remaining activity at 20 µM: 97.1%
CC(C)C[C@@H]1NC(=O)[C@H](CCCNC(=N)N)NC(=O)[C@H](CC(=O)O)NC(=O)[C@H](C(C)C)NC(=O)[C@@H]2CCCN2C(=O)[C@@H](Cc2ccccc2)NC(=O)[C@H](CC(C)C)NC(=O)[C@H]([C@@H](C)O)NC(=O)[C@@H]2CCCN2C(=O)[C@@H](Cc2ccccc2)NC1=O [XQ65, Cyclo (LfPTLfPVDR)] (cyclo(DRL[dF]PTL[dF]PV)) | 0 |  | 
CC(C)C[C@@H]1NC(=O)[C@H](CCCNC(=N)N)NC(=O)[C@H](C(C)C)NC(=O)[C@@H]2CCCN2C(=O)[C@@H](CC(C)C)NC(=O)[C@H](C)NC(=O)[C@H](CCCNC(=N)N)NC(=O)[C@H](C(C)C)NC(=O)[C@@H]2CCCN2C(=O)[C@@H](Cc2ccccc2)NC1=O [XQ49, Cyclo (AlPVRLfPVR)] (cyclo(A[dL]PVRL[dF]PVR)) |  |  | inhibition at 20 µM: 0%
CC(C)C[C@@H]1NC(=O)[C@H](CCCNC(=N)N)NC(=O)[C@H](C(C)C)NC(=O)[C@H](CC(=O)O)NC(=O)[C@@H]2CCCN2C(=O)[C@@H](Cc2ccccc2)NC(=O)[C@H](CC(C)C)NC(=O)[C@H]([C@@H](C)O)NC(=O)[C@@H]2CCCN2C(=O)[C@@H](Cc2ccccc2)NC1=O [XQ66, Cyclo (LfPTLfPDVR)] (cyclo(DVRL[dF]PTL[dF]P)) | 0 |  | 
CC(C)C[C@@H]1NC(=O)[C@H](CCCNC(=N)N)NC(=O)[C@H](C(C)C)NC(=O)[C@@H]2CCCN2C(=O)[C@@H](Cc2ccccc2)NC(=O)[C@H](C)NC(=O)[C@H](CCCNC(=N)N)NC(=O)[C@H](C(C)C)NC(=O)[C@H](CC(C)C)NC(=O)[C@@H](Cc2ccccc2)NC1=O [XQ52, Cyclo (LfLVRAfPVR)] (cyclo(A[dF]PVRL[dF]LVR)) | 0 |  | 
CC(C)C[C@@H]1NC(=O)[C@H](CCCNC(=N)N)NC(=O)[C@H](C(C)C)NC(=O)[C@@H]2CCCN2C(=O)[C@@H](Cc2ccccc2)NC(=O)[C@H](CC(C)C)NC(=O)[C@H](CCCNC(=N)N)NC(=O)[C@H](CC(C)C)NC(=O)[C@@H]2CCCN2C(=O)[C@@H](Cc2ccccc2)NC1=O [XQ54, Cyclo (LfPLRLfPVR)] (cyclo(LRL[dF]PVRL[dF]P)) | 0 |  | 
CC(C)C[C@@H]1NC(=O)[C@H](CCCNC(=N)N)NC(=O)[C@H](C(C)C)NC(=O)[C@@H]2CCCN2C(=O)[C@@H](Cc2ccccc2)NC(=O)[C@H](C)NC(=O)[C@H](CCCNC(=N)N)NC(=O)[C@H](C(C)C)NC(=O)[C@@H]2CCCN2C(=O)[C@@H](CC(C)C)NC1=O [XQ53, Cyclo (LlPVRAfPVR)] (cyclo(A[dF]PVRL[dL]PVR)) | 0 |  | 
CC(C)C[C@@H]1NC(=O)[C@H](CCCNC(=N)N)NC(=O)[C@H]([C@@H](C)O)NC(=O)[C@@H]2CCCN2C(=O)[C@@H](Cc2ccccc2)NC(=O)[C@H](C)NC(=O)[C@H](CCCNC(=N)N)NC(=O)[C@H]([C@@H](C)O)NC(=O)[C@@H]2CCCN2C(=O)[C@@H](Cc2ccccc2)NC1=O [XQ37, Cyclo (AfPTRLfPTR)] (cyclo(A[dF]PTRL[dF]PTR)) | 18 |  | Remaining activity (%), Fig. 1a source data: 81.1407% and 81.3464%; remaining activity at 20 µM: 81%
CC(C)C[C@@H]1NC(=O)[C@H](CCCNC(=N)N)NC(=O)[C@H](C(C)C)NC(=O)[C@@H]2CCCN2C(=O)[C@@H](Cc2ccccc2)NC(=O)[C@H](C)NC(=O)[C@H](CCCNC(=N)N)NC(=O)[C@H](C(C)C)NC(=O)[C@@H]2CCCN2C(=O)[C@@H](C)NC1=O [XQ21, Cyclo (AfPVRLaPVR)] (cyclo(A[dF]PVRL[dA]PVR)) | 0 |  | Remaining activity (%), Fig. 1a source data: 107.409% and 108.531%; remaining activity at 20 µM: 108%
